“And” between values parts separate entries of the source, which are not always exact repeats. Equal entries are not always repeated. Toxic doses and inconclusive results are not listed.

The results in this text go back to PubChem BioAssay AID330 (DTP/NCI, 2004).

This assay has as its system P388 leukemia ip, CD2F1 mice, survival T/C. The experiment in a line: NCI In Vivo Anticancer Drug Screen. Data for tumor model P388 Leukemia (intraperitoneal) in CD2F1 (CDF1) mice. The settings on record: endpoint: median survival time, higher = longer survival. Summed up:
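Mice carrying the transplanted tumor received test compound or vehicle. Survival was recorded in each group, and the value is the treated-group measurement divided by that of the vehicle-treated control group.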

The mark [1] stands for this setting: dose: 60.0 mg/kg/injection, schedule: Q01DX005 (ip), vehicle: saline with Tween-80.
Setting [2] is: dose: 120.0 mg/kg/injection, schedule: Q01DX005 (ip), vehicle: saline with Tween-80.
Where [3] appears, read: dose: 240.0 mg/kg/injection, schedule: Q01DX005 (ip), vehicle: saline with Tween-80.
Where [4] appears, read: dose: 25.0 mg/kg/injection, schedule: Q01DX009 (ip), vehicle: saline with Tween-80.
The mark [5] stands for this setting: dose: 50.0 mg/kg/injection, schedule: Q01DX009 (ip), vehicle: saline with Tween-80.
Setting [6] is: dose: 100.0 mg/kg/injection, schedule: Q01DX009 (ip), vehicle: saline with Tween-80.
Where [7] appears, read: dose: 200.0 mg/kg/injection, schedule: Q01DX009 (ip), vehicle: saline with Tween-80.
The mark [8] stands for this setting: dose: 50.0 mg/kg/injection, schedule: Q01DX005 (ip), vehicle: saline with Tween-80.
The mark [9] stands for this setting: dose: 100.0 mg/kg/injection, schedule: Q01DX005 (ip), vehicle: saline with Tween-80.
Setting [10] is: dose: 200.0 mg/kg/injection, schedule: Q01DX005 (ip), vehicle: saline with Tween-80.
[11] abbreviates: dose: 50.0 mg/kg/injection, schedule: Q01DX005 (ip), vehicle: Klucel (hydroxypropylcellulose) (HPC).
The mark [12] stands for this setting: dose: 100.0 mg/kg/injection, schedule: Q01DX005 (ip), vehicle: Klucel (hydroxypropylcellulose) (HPC).
The mark [13] stands for this setting: dose: 200.0 mg/kg/injection, schedule: Q01DX005 (ip), vehicle: Klucel (hydroxypropylcellulose) (HPC).

For `NC(=O)C(=O)NNC(=O)CCn1[nH]c(=O)c(Cl)c(Cl)c1=O`, the T/C was 100 % of control under setting [1], 103 % of control under setting [2] and 98 % of control under setting [3].

As for `O=C1NN=C(C(O)c2ccccc2)C1(O)c1ccccc1` (stereo not drawn), the T/C under setting [1] is 91 % of control; the T/C (dose: 100.0 mg/kg/injection, schedule: Q04DX002 (ip), vehicle: distilled water + alcohol) is 103 % of control; the T/C under setting [2] is 98 % of control; the T/C (dose: 200.0 mg/kg/injection, schedule: Q04DX002 (ip), vehicle: distilled water + alcohol) is 98 % of control; the T/C under setting [3] is 93 % of control; the T/C (dose: 400.0 mg/kg/injection, schedule: Q04DX002 (ip), vehicle: distilled water + alcohol) was 94 % of control.

As for `C=CCNC(=S)n1cnc(N)n1`, the T/C runs as follows: (dose: 30.0 mg/kg/injection, schedule: Q01DX005 (ip), vehicle: saline with Tween-80) 107 % of control; under setting [1], 105 % of control and 108 % of control; under setting [2], 115 % of control and 96 % of control.

Regarding `O=C1COCC(=O)OCCOCCOCCOCCO1`, the T/C reads like this: (dose: 100.0 mg/kg/injection, schedule: Q04DX003 (ip), vehicle: Klucel (hydroxypropylcellulose) (HPC)) 99 % of control; (dose: 200.0 mg/kg/injection, schedule: Q04DX003 (ip), vehicle: Klucel (hydroxypropylcellulose) (HPC)) 102 % of control; (dose: 400.0 mg/kg/injection, schedule: Q04DX003 (ip), vehicle: Klucel (hydroxypropylcellulose) (HPC)) 99 % of control.

Take `COc1cc2c(cc1OC)C1Cc3ccc4cc(OC)c(OC)cc4c3CN1CC2` (stereo not drawn): the T/C was 90 % of control under setting [4], 100 % of control under setting [5] and 95 % of control under setting [6].

`C(NC=C(c1ccccc1)c1ccccc1)=C(c1ccccc1)c1ccccc1`: the T/C is, setting by setting: (dose: 100.0 mg/kg/injection, schedule: Q01DX001 (ip), vehicle: Klucel (hydroxypropylcellulose) (HPC)) 103 % of control; (dose: 200.0 mg/kg/injection, schedule: Q01DX001 (ip), vehicle: Klucel (hydroxypropylcellulose) (HPC)) 107 % of control; (dose: 400.0 mg/kg/injection, schedule: Q01DX001 (ip), vehicle: Klucel (hydroxypropylcellulose) (HPC)) 103 % of control.

On to `CCCN=C(c1ccccc1C=O)c1c2ccccc2cn1CCC`, for which the T/C (dose: 7.5 mg/kg/injection, schedule: Q01DX005 (ip), vehicle: saline + Tween-80 + alcohol) is 114 % of control; the T/C (dose: 15.0 mg/kg/injection, schedule: Q01DX005 (ip), vehicle: saline + Tween-80 + alcohol) is 124 % of control; the T/C (dose: 30.0 mg/kg/injection, schedule: Q01DX005 (ip), vehicle: saline + Tween-80 + alcohol) was 119 % of control.

Regarding `CC1=NN(C(=O)c2ccncc2)C(=O)C1N=Nc1ccc([N+](=O)[O-])cc1Cl` (stereo not drawn), the T/C is 99 % of control under setting [5], 96 % of control under setting [6] and 104 % of control under setting [7].

As for `CC(CN=C(CC(=O)c1ccccc1)c1ccccc1)N=C(CC(=O)c1ccccc1)c1ccccc1.[Cu]` (stereo not drawn), the T/C under setting [5] was 100 % of control, the T/C under setting [6] was 106 % of control and the T/C under setting [7] was 91 % of control.

As for `O=NN(CCCl)C(=O)Nc1cc(=O)[nH]c(SCc2ccccc2)n1`, the T/C (dose: 10.06 mg/kg/injection, schedule: Q04DX002 (ip), vehicle: Klucel (hydroxypropylcellulose) (HPC)) is 151 % of control; the T/C (dose: 40.25 mg/kg/injection, schedule: Q04DX002 (ip), vehicle: Klucel (hydroxypropylcellulose) (HPC)) was 158 % of control; the T/C (dose: 80.5 mg/kg/injection, schedule: Q04DX002 (ip), vehicle: Klucel (hydroxypropylcellulose) (HPC)) was 178 % of control; the T/C (dose: 161.0 mg/kg/injection, schedule: Q04DX002 (ip), vehicle: Klucel (hydroxypropylcellulose) (HPC)) was 150 % of control and 158 % of control; the T/C (dose: 322.0 mg/kg/injection, schedule: Q04DX002 (ip), vehicle: Klucel (hydroxypropylcellulose) (HPC)) is 101 % of control.

In the case of `NC(=S)/N=C(/N)NC(=O)c1ccccc1`, the T/C is 87 % of control under setting [4], 87 % of control under setting [5], 86 % of control under setting [6] and 110 % of control under setting [7].

In the case of `O=C(Nc1ccccc1)ON=C1CCCCC1`, the T/C is 101 % of control under setting [1], 96 % of control under setting [2] and 99 % of control under setting [3].

Take `OCC(O)C(O)Cc1cnc(C(O)C(O)C(O)CO)cn1` (stereo not drawn): the T/C is 93 % of control (dose: 50.0 mg/kg/injection, schedule: Q01DX009 (ip), vehicle: other); 96 % of control (dose: 100.0 mg/kg/injection, schedule: Q01DX009 (ip), vehicle: other); 102 % of control (dose: 200.0 mg/kg/injection, schedule: Q01DX009 (ip), vehicle: other); 108 % of control (dose: 400.0 mg/kg/injection, schedule: Q01DX009 (ip), vehicle: other); 102 % of control (dose: 800.0 mg/kg/injection, schedule: Q01DX009 (ip), vehicle: other).

On to `O=C(Cc1nc2cc(Cl)c(Cl)cc2nc1CC(=O)c1cccnc1)c1cccnc1`, for which the T/C is 110 % of control under setting [1], 103 % of control under setting [2] and 100 % of control under setting [3].

As for `CC(C)NC(=O)OCc1c(COC(=O)NC(C)C)c(S(C)(=O)=O)n2c1CCC2`, the T/C (dose: 25.0 mg/kg/injection, schedule: Q01DX005 (ip), vehicle: saline with Tween-80) is 89 % of control; the T/C under setting [8] is 86 % of control; the T/C under setting [9] is 88 % of control; the T/C under setting [10] was 91 % of control.

As for `CN1C(=S)C2(C1c1ccccc1)C(C)(C)CCCC2(C)C` (stereo not drawn), the T/C by setting is: (dose: 100.0 mg/kg/injection, schedule: Q01DX001 (ip), vehicle: saline with Tween-80) 92 % of control; (dose: 200.0 mg/kg/injection, schedule: Q01DX001 (ip), vehicle: saline with Tween-80) 92 % of control; (dose: 400.0 mg/kg/injection, schedule: Q01DX001 (ip), vehicle: saline with Tween-80) 87 % of control.

On to `CN(C)CC1CC1N1c2ccccc2Sc2ccc(Cl)cc21` (stereo not drawn), for which the T/C was 99 % of control (dose: 25.0 mg/kg/injection, schedule: Q01DX009 (ip), vehicle: Klucel (hydroxypropylcellulose) (HPC)); 101 % of control and 112 % of control (dose: 50.0 mg/kg/injection, schedule: Q01DX009 (ip), vehicle: Klucel (hydroxypropylcellulose) (HPC)); 101 % of control and 112 % of control (dose: 100.0 mg/kg/injection, schedule: Q01DX009 (ip), vehicle: Klucel (hydroxypropylcellulose) (HPC)).

In the case of `COc1ccc(Cc2nnc3nc(OC)c(-c4ccc(OC)cc4)n3n2)cc1`, the T/C reads like this: under setting [8], 108 % of control and 87 % of control; under setting [9], 108 % of control; under setting [10], 86 % of control and 98 % of control.

On to `CC(=O)NC1CC(C)(C)NC(C)(C)C1`, for which the T/C is 100 % of control (dose: 12.5 mg/kg/injection, schedule: Q01DX009 (ip), vehicle: saline); 96 % of control (dose: 25.0 mg/kg/injection, schedule: Q01DX009 (ip), vehicle: saline); 114 % of control and 88 % of control (dose: 50.0 mg/kg/injection, schedule: Q01DX009 (ip), vehicle: saline); 95 % of control (dose: 200.0 mg/kg/injection, schedule: Q01DX009 (ip), vehicle: saline).

Regarding `COc1ccc2c(c1)C(O)C(CO)C(C(=O)O)C2` (stereo not drawn), the T/C was 106 % of control under setting [11], 101 % of control under setting [12] and 101 % of control under setting [13].

`COc1cccc2c1CCC(=O)C2C` (stereo not drawn): the T/C reads like this: under setting [11], 107 % of control; under setting [12], 100 % of control; under setting [13], 104 % of control.
